Format in all cases: cell-based, mouse
The test system of experiment [1] is epicardial explants from E10.5 hearts. As to the kind of experiment: Embryonic epicardial explant cultures. The note with it: E10.5 explants. From the text: In order to support our in vivo phenotype analyses and assess a direct effect of Tβ4 on developing epicardium, we established epicardial explant cultures from wild-type hearts13. We initially derived epicardial explants from stages E10.5 to E16.5 and postnatal day 1 (P1) neonates, treated with either, Tβ4, with VEGF and FGF7 [59], or a combination of Tβ4 and growth factors. Explants from E10.5 hearts, coincident with the formation of the epicardium, produced extensive outgrowths that differentiated into SMαA- and Tie2-positive cells (FIG. 3 b).

Experiment [2] concerns Akt (P-Ser 473). The experiment in a line: Tβ4 treatment of C2C12 myoblast cells, Akt phosphorylation. The note with it: C2C12 myoblasts, Tβ4 10 ng/ml. The procedure:
Western blotting was performed using standard methods (Tris-Tricine 4-20% gradient SDS-PAGE for blotting of Tβ4 or Tβ10 peptides and Tris-glycine SDS-PAGE for all other proteins) using antibodies against Tβ4 (abcam), Tβ10 (Biodesign International), Tie-2 (Santa Cruz), SMαA (Sigma), GAPDH (Chemicon), Caspase-8 (Santa Cruz), Cleaved caspase-3, total Akt and Phospho-Akt (both Cell Signalling Technology).
C2C12 cells were cultured in DMEM containing 10% FBS. Tβ4 (10 ng/ml, mmundiagnostik AG) was added and cells harvested over a time course to assess the degree of phosphorylation (activation) of Akt.

Experiment [3] relates to adult heart explants (adult EPDCs). As to the kind of experiment: Adult epicardial explant culture: EPDC outgrowth and differentiation. The procedure: A simple protocol for the outgrowth and differentiation of vasculogenic precursor cells (endothelial and vascular smooth muscle cells) from adult heart using Thymosin β4 to stimulate epicardial cell migration is described below.
• 1. Coat 6-well plates with gelatin: pipette 2 ml 0.1% gelatin solution, allow to stand for 15 minutes and aspirate. Optionally, place coverslips into wells, prior to gelatin coating. • 2. Cull adult mouse by cervical dislocation. • 3. Using sterile forceps and scissors make a lateral incision in the centre of the abdomen and tear back the fur to expose the rib cage. • 4. Carefully cut upwards through the sternum and along the diaphragm, taking care not to cut into the heart. Pull back the ribs to reveal the heart. • 5. Remove the heart using forceps and dissect away the atria and major vessels, to leave right and left ventricles. • 6. Place tissue in a 60 mm tissue culture dish (non gelatin coated) containing 2 ml DPBS. Cut into quarters and allow blood to rinse from the tissue. Carefully aspirate away DPBS. Using a sterile scalpel, cut the heart into pieces of approximately 1 mm^3. Reproducible EPDC outgrowth strongly depends upon the size of the heart pieces (optimally 1 mm^3). Larger pieces will not adhere to permit sufficient migration while smaller pieces tend to dissociate completely and cardiomyocyte death precedes adherence and EPDC outgrowth. • 7. Divide heart pieces into 4 equal portions (1 adult heart is typically divided between 4 wells for optimal EPDC outgrowth). • 8. Pipette 2 ml of EPDC culture medium, supplemented with 100 ng/ml Tβ4, into each well to be used. • 9. Place 1 portion of heart tissue into the centre of each well and ensure that all pieces are submerged. • 10. Gently transfer the plate to a humidified 5% CO2 37° C. incubator. Maintain cultures with minimum disturbance to allow explants to adhere. No feeding is required for the first 72 hours. Minimal disturbance is absolutely essential for EPDC outgrowth. Explants adhere only tenuously in the first instance and disturbance in the first few days of culture will prevent adhesion or lead to detachment. Plates should be transferred extremely cautiously between incubator and microscope or culture hood. After sufficient EPDCs have emerged, explants attach more firmly but care is still required as detachment may easily occur. • 11. After 72 hours in culture, carefully transfer plate to culture hood, wash explants gently with DPBS and add 2 ml fresh EPDC medium containing 100 ng/ml Tβ4. Leave for a further 24 hours before assessment of cellular phenotype.
• 1. Culture adult heart explants as described above. • 2. After 72 hours of culture, fix cells with 4% PFA for 10 minutes at room temperature. • 3. Wash cells twice with PBS. • 4. Permeabilise cells with 0.5% Triton X-100 in PBS for 5 minutes at room temperature. • 5. Wash cells twice with PBS. • 6. Block non-specific binding by incubating cells in BLOCK (1% BSA/10% sheep serum in PBS) for 1 hour at room temperature. • 7. Incubate cells with an appropriate dilution of primary antibody (epicardin, 1:100; SMalphaA, 1:700; Flk1, 1:100), or Procollagen type I, 1:100), in BLOCK. • 8. Wash cells 3 times using BLOCK. • 9. Incubate cells with the appropriate secondary antibody (epicardin: Cy3-conjugated anti-rabbit; SMalphaA: FITC-conjugated anti-mouse, 1:30; Procollagen type I: Alexa 488-conjugated anti-goat, 1:200; Flk1: Alexa 594-conjugated anti-rat, 1:200) diluted in BLOCK. • 10. Wash cells twice in PBS. • 11. Optionally, to stain nuclei, incubate with 5 ug/ml Hoechst in PBS for 5 minutes at room temperature. • 12. Wash cells twice in PBS. • 13. Mount coverslips onto microscope slides using 50% glycerol in PBS as mountant and visualize using a fluorescence microscope. […]

Bounds are passed on as bounds.

In the case of Thymosin β4 [Tβ4], the “numbers of SMαA- and Tie2-positive cells” value in experiment [1] is reported as “significantly increased”. Moreover, the “time to Akt activation (P-Ser 473)” value in experiment [2] is at most 10 min. In addition, in experiment [3] (Gata5-EYFP lineage trace explant cultures, mean +/− SEM, n=12 explants), the “percentage incidence of myocardial progenitors (cells positive for Isl-1/Nkx2.5/Gata4)” value is recorded as 5.3+/−1.9%. Besides, in experiment [3] (adult epicardial explants, immunofluorescence), the “EPDCs positive for Tbx18 and Raldh2” value is “significant number of proliferative, migrating EPDCs positive for Tbx18 and Raldh2”. The “differentiation of emerging epicardin-positive cells” value in experiment [3] (adult explants, immunofluorescence) was “differentiated with migration into procollagen type I—, SMαA- and Flk1 (VEGF receptor)-positive cells”. Besides, the “EPDC outgrowth from adult heart explants” value in experiment [3] (adult mouse heart explants, 8-12 weeks, vs untreated explants) is reported as “stimulated extensive outgrowth of cells”.

Source of the values: patent publication US20090081170A1, “Cardiac progenitor cells” (priority 2007, published 2009).
